# Reference: patent US9006256B2, “Antitumor agent for thyroid cancer” (Eisai R&D Management Co., Ltd., priority 2006, dated 2015)
# Experiments:
# [1] = tested on: NIH3T3 cells transformed with mutant RET; settings: Cancer Research, 15, 7284-7290, 2002; cited from earlier work
# [2] = tested on: NIH3T3 cells transformed with mutant RET; settings: Cancer Research, 15, 7284-7290, 2002; cited from earlier work; remark: listed apart in the source
# [3] = tested on: human medullary thyroid carcinoma cell line (TT); assay: Antitumor effect in model for subcutaneous transplantation of human medullary thyroid carcinoma cell line (TT); format: in vivo, nude mouse; settings: oral, 10, 30 or 100 mg/kg, once a day, four weeks
# Method: (§1) Human medullary thyroid carcinoma cell line (TT, purchased from ATCC) was cultured at 37° C. in RPMI1640 (containing 15% FBS) in a 5% carbon dioxide incubator to about 80% confluence, and cells were harvested with trypsin-EDTA according to a general method. The cells were suspended in a phosphate buffer to prepare 1×10^8 cells/mL suspension. 0.1 mL each of the resulting cell suspension was subcutaneously transplanted to a nude mouse at the side of its body (purchased from Charles River).
# The major and minor axes of tumors were measured with Digimatic caliper (Mitsutoyo), and tumor volumes were calculated according to the following formula. Tumor Volume (TV)=Major axis of tumor (mm)×(Minor axis of tumor)^2 (mm^2)/2
# RET = molecular target: T1, RET (Homo sapiens, UniProt P07949, C634W); assay: RET phosphorylation in tumor tissue of model for subcutaneous transplantation of TT; format: in vivo, nude mouse; settings: oral, 10, 30 or 100 mg/kg; tumors resected 2, 8, 12 or 24 hours after administration
# T1 construct: from tissue; host or cells: Subcutaneous TT tumour resected from nude mice (TT from ATCC, mice from Charles River)
# T1 sequence (P07949 29-1114 C634W): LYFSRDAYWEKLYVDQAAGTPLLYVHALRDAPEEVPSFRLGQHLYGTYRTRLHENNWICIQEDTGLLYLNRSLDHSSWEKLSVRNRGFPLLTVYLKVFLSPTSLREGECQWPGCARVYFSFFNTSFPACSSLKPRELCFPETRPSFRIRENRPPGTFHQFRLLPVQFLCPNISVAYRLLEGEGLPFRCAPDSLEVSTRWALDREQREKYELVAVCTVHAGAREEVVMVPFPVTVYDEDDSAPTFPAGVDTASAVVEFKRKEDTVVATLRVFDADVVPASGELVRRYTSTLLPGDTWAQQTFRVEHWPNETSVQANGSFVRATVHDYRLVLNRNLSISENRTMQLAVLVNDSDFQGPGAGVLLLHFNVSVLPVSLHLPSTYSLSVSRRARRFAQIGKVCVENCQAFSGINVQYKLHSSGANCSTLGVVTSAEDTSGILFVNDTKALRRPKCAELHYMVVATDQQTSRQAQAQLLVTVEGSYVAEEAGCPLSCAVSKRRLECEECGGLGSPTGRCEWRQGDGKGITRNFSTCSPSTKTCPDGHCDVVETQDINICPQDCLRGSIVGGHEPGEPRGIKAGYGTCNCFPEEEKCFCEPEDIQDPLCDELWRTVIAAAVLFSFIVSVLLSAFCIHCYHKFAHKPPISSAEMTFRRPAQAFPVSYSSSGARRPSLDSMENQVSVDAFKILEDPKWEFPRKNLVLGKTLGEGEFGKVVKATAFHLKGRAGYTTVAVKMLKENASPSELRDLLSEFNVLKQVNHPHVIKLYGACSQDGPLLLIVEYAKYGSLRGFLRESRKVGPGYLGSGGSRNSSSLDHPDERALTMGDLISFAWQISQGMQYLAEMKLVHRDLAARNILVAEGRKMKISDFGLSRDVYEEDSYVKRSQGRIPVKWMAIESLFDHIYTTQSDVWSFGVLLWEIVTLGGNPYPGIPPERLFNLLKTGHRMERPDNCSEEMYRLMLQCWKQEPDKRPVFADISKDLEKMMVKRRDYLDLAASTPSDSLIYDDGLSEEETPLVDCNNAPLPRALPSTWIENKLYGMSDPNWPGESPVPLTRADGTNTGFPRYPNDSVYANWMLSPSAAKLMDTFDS
# Method: as §1
# Tumors were resected 2, 8, 12 or 24 hours after administration, to which solubilizing buffer (50 mM Hepes (pH7.4), 150 mM NaCl, 10% (v/v) glycerol, 1% Triton X-100, 1.5 mM MgCl2, 1 mM EDTA (pH 8.0), 100 mM NaF, 1 mM PMSF, 10 μg/mL Aprotinin, 50 μg/mL Leupeptin, 1 μg/mL Pepstatin A, 1 mM Na3VO4), 25 mM β-glycerophosphate, and phosphatase inhibitor cocktail II (SIGMA)) were added and homogenized. Treatment at 15,000 rpm and 4° C. for 15 minutes and addition of SDS buffer to the supernatant were followed by treatment at 94° C. for 5 minutes to solubilize protein to 20 μg/10 μL to prepare cell extract. The cell extract was subjected to electrophoresis and immunoblotting in the same manner as in Example 2.
# [4] = tested on: human medullary thyroid carcinoma cell line (TT); assay: Cell growth of human medullary thyroid carcinoma cell line (TT); format: cell-based; settings: 240 h, TT cells, 10 days culture, read-out: inhibitory activity against cell growth (IC50)
# Method: Human medullary thyroid carcinoma cell line (TT, purchased from ATCC) was suspended in RPMI1640 medium containing 15% FBS (purchased from Sigma). 0.1 mL per well of this cell suspension (3×10^4 cells/mL) was added to 96-well cell culture plate (purchased from NUNC), and cultured in a 5% CO2 incubator (37° C.) overnight. […] After cultivation, 10 μL of […] (purchased from DOJINDO) was added to each well, treated in 5% CO2 incubator (37° C.) for color development and absorbance of each well was determined with plate reader MTP-500 (Corona Electric) at measurement wavelength of 415 nm and reference wavelength of 660 nm. Percentage (%) of the absorbance of each well with the test substance was determined compared to the absorbance of well without the test substance, based on which concentration of the test substance required for inhibiting cell growth for 50% (IC50) was calculated.
# Erk1/2 = Erk1/2 phosphorylation in human medullary thyroid carcinoma cell line (TT), western blotting; format: cell-based; settings: TT cells, 1 hour treatment
# Method: Human medullary thyroid carcinoma cell line (TT, purchased from ATCC) was suspended in RPMI1640 medium containing 15% FBS (purchased from Sigma). TT is a cell expressing RET where cysteine at codon 634 in the wild-type RET amino acid sequence is mutated with tryptophan (Biochemical and Biophysical Research Communications, 207, 1022-1028, 1995). Two mL of this cell suspension per well (4×10^5 cells/mL) was added to 6-well cell culture plate (purchased from FALCON), and cultured in a 5% CO2 incubator (37° C.) overnight. After cultivation, supernatant was removed from each well and 1.8 mL of RPMI1640 medium containing 15% FBS was added. […] Supernatant was removed from each well, which was then washed with 400 μL of PBS, and added with 100 μL of solubilizing buffer (50 mM Hepes (pH7.4), 150 mM NaCl, 10% (v/v) glycerol, 1% Triton X-100, 1.5 mM MgCl2, 1 mM EDTA (pH 8.0), 100 mM NaF, 1 mM PMSF, 10 μg/mL, Aprotinin, 50 μg/mL Leupeptin, 1 μg/mL Pepstatin A and 1 mM Na3VO4). Cells in this solution were harvested with a scraper and treated at 15,000 rpm and 4° C. for 15 minutes. SDS buffer was added to the supernatant and subjected to treatment at 94° C. for 5 minutes to solubilize the protein, which was then prepared to 20 μg/10 μL as a cell extract. […]
# [5] = tested on: human medullary thyroid carcinoma cell line (TT); settings: Journal of the National Cancer Institute, 98, 326-334, 2006; cited from earlier work
smiles,measurement,setting,value
COc1cc2c(Nc3ccc(Br)cc3F)ncnc2cc1OCC1CCN(C)CC1 [ZD6474],scaffold-independent proliferation,[1],suppress scaffold-independent proliferation
same,tumor formation,[2],inhibited tumor formation
COc1cc2nccc(Oc3ccc(NC(=O)NC4CC4)c(Cl)c3)c2cc1C(N)=O [4-(3-chloro-4-(cyclopropylaminocarbonyl)aminophenoxy)-7-methoxy-6-quinolinecarboxamide],antitumor effect (tumor volume),[3],dose-dependent antitumor effect
same,RET autophosphorylation inhibitory activity in tumor,RET,RET autophosphorylation inhibitory activity at the dose found to exert antitumor effect
same,IC50,[4],78 nM
same,inhibition of Erk1/2 phosphorylation,Erk1/2,at a concentration similar to that for RET kinase
CNC(=O)c1cc(Oc2ccc(NC(=O)Nc3ccc(Cl)c(C(F)(F)F)c3)cc2)ccn1 [BAY 43-9006],size of tumor,[5],reduce the size of tumor
